Measurements: US10639284B2, “Immunomodulator compounds” (CHEMOCENTRYX, INC., priority 2016, dated 2020)

Each compound was assayed against human PD-L1 / Human PD-1 (Homo sapiens (Human), UniProt Q9NZQ7) (assay: Enzyme-Linked Immunosorbent Assay (ELISA), PD-1/PD-L1 binding). Conditions: Table 2; plate-coated human PD-L1, biotinylated human PD-1; read-out: ELISA IC50.
Procedure, shortened: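 Human PD-L1 coated at 1 μg/mL overnight at 4° C; samples diluted 1:5 and incubated with human PD-1 and biotin (0.3 μg/mL) for 1 h at 37° C. Bound PD-1 detected with streptavidin-HRP and TMB (20 min, 37° C), acid-stopped, absorbance at 450 nm.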

Chain of human PD-L1 / Human PD-1 (Q9NZQ7 19-239): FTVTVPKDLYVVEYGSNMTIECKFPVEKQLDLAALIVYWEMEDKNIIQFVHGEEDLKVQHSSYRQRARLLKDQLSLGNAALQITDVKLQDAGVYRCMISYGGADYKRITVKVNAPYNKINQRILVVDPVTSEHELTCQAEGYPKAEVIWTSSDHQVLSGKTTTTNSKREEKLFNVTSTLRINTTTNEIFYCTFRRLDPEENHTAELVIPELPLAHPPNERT

IC50 [nM]	SMILES
< 100	N#Cc1cncc(COc2cc(O[C@H]3CCc4c(-c5ccccc5F)cccc43)c(Cl)cc2CN2CCC(C(=O)O)C2)c1 (some centres unmarked) [Example 2.032]
< 100	N#Cc1cncc(COc2cc(O[C@H]3CCc4c(-c5ccccc5F)cccc43)c(Cl)cc2CN2CC(O)C2)c1 [Example 2.037]
100 to 500	COc1cccc(-c2cccc3c2CC[C@@H]3Oc2cc(OCc3cncc(C#N)c3)c(CN3CCC(O)CC3)cc2Cl)c1Cl [Example 2.071]
100 to 500	CC(C)c1ccccc1-c1cccc2c1CC[C@@H]2Oc1cc(OCc2cncc(C#N)c2)c(CN[C@@H](CO)C(=O)O)cc1Cl [Example 2.034]
100 to 500	CCOc1cc(O[C@H]2CCc3c(-c4ccccc4F)cccc32)c(Cl)cc1CN[C@H](CO)C(=O)O [Example 2.155]
100 to 500	CC1(O)CCN(Cc2cc(Cl)c(O[C@H]3CCc4c(-c5ccccc5F)cccc43)cc2OCc2cncc(C#N)c2)CC1 [Example 2.075]
500 to 20000	CC(C)Oc1cc(O[C@H]2CCc3c(-c4ccccc4)cccc32)c(Cl)cc1CN[C@@H](CO)C(=O)O [Example 2.011]
< 100	C[C@H](O)[C@@H](NCc1cc(Cl)c(O[C@H]2CCc3c(-c4ccccc4F)cccc32)cc1OCc1cncc(C#N)c1)C(=O)O [Example 2.122]
100 to 500	N#Cc1cccc(-c2cc(O[C@H]3CCc4c(-c5ccccc5F)cccc43)c(Cl)cc2CN[C@@H](CO)C(=O)O)c1 [Example 2.121]
100 to 500	CC(C)[C@H](NCc1cc(Cl)c(O[C@H]2CCc3c(-c4ccccc4F)cccc32)cc1OCc1cncc(C#N)c1)C(=O)O [Example 2.123]
500 to 20000	N#Cc1cncc(COc2cc(O[C@H]3CCc4c(-c5ccccc5F)cccc43)c(Cl)cc2CN2CC[C@H](O)[C@H](F)C2)c1 [Example 2.113]
500 to 20000	N#Cc1cncc(COc2cc(O[C@H]3CCc4c(-c5ccccc5)cccc43)c(Cl)cc2CNCc2ccn[nH]2)c1 [Example 1.015]
500 to 20000	CCOc1cc(O[C@H]2CCc3c(-c4ccc5c(c4F)OCCO5)cccc32)c(Cl)cc1CN1CCC(O)CC1 [Example 2.059]
500 to 20000	COc1cccc(-c2cccc3c2CCC3CCOc2cc(OCc3cncc(C#N)c3)c(CN3CCC(O)CC3)cc2Cl)c1F (centres unmarked) [Example 2.087]
< 100	N#Cc1cncc(COc2cc(OC3CCc4c(-c5ccccc5)cccc43)c(Cl)cc2CNCCO)c1 (centres unmarked) [Example 1.004]
< 100	C[C@@H](O)[C@H](NCc1cc(Cl)c(O[C@H]2CCc3c(-c4ccccc4F)cccc32)cc1OCc1cncc(C#N)c1)C(=O)O [Example 2.100]
100 to 500	COc1ccc(-c2cccc3c2CC[C@@H]3Oc2cc(OCc3cncc(C#N)c3)c(CN[C@@H](CO)C(=O)O)cc2Cl)cc1 [Example 2.014]
100 to 500	COc1cccc(-c2cccc3c2CC[C@@H]3Oc2cc(OCc3cncc(C#N)c3)c(CN3CC(O)C3)cc2Cl)c1Cl [Example 2.072]
< 100	C[C@H](O)[C@H](NCc1cc(Cl)c(O[C@H]2CCc3c(-c4ccccc4F)cccc32)cc1OCc1cncc(C#N)c1)C(=O)O [Example 2.127]
< 100	Cc1ccc(F)c(-c2cccc3c2CC[C@@H]3Oc2cc(OCc3cncc(C#N)c3)c(CN[C@@H](CO)C(=O)O)cc2Cl)c1 [Example 2.067]
500 to 20000	N#Cc1cncc(COc2cc(O[C@H]3CCc4c(-c5ccccc5F)cccc43)c(Cl)cc2CNC(C(N)=O)C(N)=O)c1 [Example 2.170]
< 100	COC[C@H](NCc1cc(Cl)c(O[C@H]2CCc3c(-c4ccccc4F)cccc32)cc1OCc1cncc(C#N)c1)C(=O)O [Example 2.134]
500 to 20000	CC(C)c1cccc(-c2cccc3c2CC[C@@H]3Oc2cc(OCc3cncc(C#N)c3)c(CN[C@@H](CO)C(=O)O)cc2Cl)c1 [Example 2.033]

Same assay, conditions: Table 3; plate-coated human PD-L1, biotinylated human PD-1; read-out: ELISA IC50

IC50 [nM]	SMILES
< 100	N#Cc1cncc(COc2cc(O[C@H]3CCc4c(-c5ccccc5F)cccc43)c(Cl)cc2CN[C@@H]2CCOC[C@H]2O)c1 [Example 3.037]
100 to 500	N#Cc1cncc(COc2cc(O[C@H]3CCc4c(-c5ccccc5F)cccc43)c(Cl)cc2CNCCCCN(CCO)CCO)c1 [Example 3.088]
< 100	N#Cc1cncc(COc2cc(O[C@H]3CCc4c(-c5ccc6c(c5F)OCCO6)cccc43)c(Cl)cc2CN[C@@H](CCO)C(=O)O)c1 [Example 3.034]
500 to 20000	CC(C)OC(=O)[C@@H](NCc1cc(Cl)c(O[C@H]2CCc3c(-c4ccc5c(c4F)OCCO5)cccc32)cc1OCc1cncc(C#N)c1)[C@@H](C)O [Example 3.045]
< 100	N#Cc1cncc(COc2cc(O[C@@H]3CCc4c(-c5ccccc5F)cccc43)c(Cl)cc2CN[C@H](CO)C(=O)O)c1 [Example 3.069]
< 100	COc1cccc(-c2cccc3c2CC[C@@H]3Oc2cc(OCc3cc(C#N)cc(C#N)c3)c(CN[C@@H](CO)C(=O)O)cc2Cl)c1Cl [Example 3.016]
< 100	N#Cc1cncc(COc2cc(O[C@H]3CCc4c(-c5ccccc5F)cccc43)c(Cl)cc2CN[C@@H](CO)C(=O)NCC(=O)NCC(=O)O)c1 [Example 3.043]
< 100	N#Cc1cncc(COc2cc(O[C@H]3CCc4c(-c5ccccc5F)cccc43)c(Cl)cc2CNCc2cccnn2)c1 [Example 3.084]
100 to 500	N#Cc1cncc(COc2cc(O[C@H]3CCc4c(-c5ccccc5F)cccc43)c(Cl)cc2CN[C@H]2CCc3ccc(O)cc3C2)c1 [Example 3.093]
< 100	N#Cc1cncc(COc2cc(O[C@H]3CCc4c(-c5ccccc5F)cccc43)c(Cl)cc2CN[C@@H](CO)C(=O)N[C@@H](CO)C(=O)N[C@@H](CO)C(=O)O)c1 [Example 3.048]
100 to 500	N#Cc1cncc(COc2cc(O[C@H]3CCc4c(-c5ccccc5F)cccc43)c(Cl)cc2CN[C@@H](CNC(=N)N)C(=O)O)c1 [Example 3.096]
< 100	N#Cc1cncc(COc2cc(O[C@H]3CCc4c(-c5ccccc5F)cccc43)c(Cl)cc2CNC(CO)(CO)CO)c1 [Example 3.130]
< 100	N#Cc1cncc(COc2cc(O[C@H]3CCc4c(-c5ccccc5F)cccc43)c(Cl)cc2CN2CC[C@@H](C(=O)O)C2)c1 [Example 3.132]
500 to 20000	CC(C)(C)OC(=O)[C@H](CO)NCc1cc(Cl)c(O[C@H]2CCc3c(-c4ccccc4F)cccc32)cc1OCc1cncc(C#N)c1 [Example 3.136]
< 100	N#Cc1cncc(COc2cc(O[C@H]3CCc4c(-c5ccccc5F)cccc43)c(Cl)cc2CN[C@H]2CCC[C@H](O)C2)c1 [Example 3.040]
500 to 20000	N#Cc1cncc(COc2cc(O[C@H]3CCc4c(-c5ccccc5F)cccc43)c(Cl)cc2CN[C@H](Cc2ccc(O)cc2)C(=O)O)c1 [Example 3.102]
< 100	N#Cc1cncc(COc2cc(O[C@@H]3CCc4c(-c5ccccc5F)cccc43)c(Cl)cc2CN[C@@H](CO)C(=O)O)c1 [Example 3.120]
< 100	N#Cc1cncc(COc2cc(O[C@H]3CCc4c(-c5ccccc5F)cccc43)c(Cl)cc2CN[C@@H]2COC[C@H]2O)c1 [Example 3.039]
100 to 500	N#Cc1cncc(COc2cc(O[C@H]3CCc4c(-c5ccccc5F)cccc43)c(Cl)cc2CN[C@@H](CC(=O)O)C(=O)O)c1 [Example 3.105]
500 to 20000	N#Cc1cncc(COc2cc(O[C@H]3CCc4c(-c5ccc(CO)cc5)cccc43)c(Cl)cc2CN[C@@H](CO)C(=O)O)c1 [Example 3.123]
< 100	N#Cc1cncc(COc2cc(O[C@H]3CCc4c(-c5ccccc5F)cccc43)c(Cl)cc2CN[C@H](CNC(=N)N)C(=O)O)c1 [Example 3.083]
